# Assay results: PMC4289246, “Dose-dependent effects of lesogaberan on reflux measures in patients with refractory gastroesophageal reflux disease: a randomized, placebo-controlled study” (BMC Gastroenterology, 2014)
# Tests used:
# [1] = system: patients with GERD who have a partial response to PPI therapy; design: method as in PMID 20451523; conditions: 65 mg twice daily, partial responders to PPI therapy; cited from earlier work
# [2] = system: patients with GERD who had a partial response to PPI treatment; test: Safety and tolerability assessments; assay type: in vivo, human
# Experimental: Sitting and orthostatic blood pressure and pulse rate were also assessed pre-dose and 2 h after the first dose of lesogaberan or placebo at each treatment visit. Patients ate meals (standardized primarily according to fat content and pH) approximately 1 h after each dose of study medication or placebo, and at the same time points during each study period. Patients were monitored for adverse events from the first dose administration until the follow-up visit 5–10 days after receiving the last dose. The active treatment period for each dose was defined as the time from the first dose of study drug to 24 h after the second dose of study drug in each treatment period. Patients also underwent active questioning to determine whether they experienced syncope, or feeling faint, lightheadedness, dizziness or paraesthesia before study treatment started and after removing the impedance–pH catheter. A 12-lead digital electrocardiogram (ECG) was scheduled at the screening visit, before and 2 h after the first dose of lesogaberan or placebo at each treatment visit, and at the follow-up visit. Blood and urine samples were taken at the pre-entry visit (full laboratory screen), and before and 24 h after the first dose of lesogaberan or placebo at each treatment visit (reduced laboratory screen) to assess clinical chemistry and haematology, and to screen for indications of drug abuse.
# The efficacy evaluation of the different doses of lesogaberan was based on data from all patients not affected by major protocol deviations and violations relevant to the analysis of a specific variable. The safety analysis set comprised all patients who received at least one dose of lesogaberan or placebo, and for whom post-dose data were available.
# [3] = 2 h after first dose, 30–240 mg
structure (smiles),measurement,setting,value
"NC[C@@H](F)C[PH](=O)O [lesogaberan, (R)-(3-amino-2-fluoropropyl) phosphinic acid]",reduction in the mean number of total reflux episodes relative to placebo,[1],approximately 35%
same,adverse events during active dosing,[2]; 90 mg twice in 24 h,one patient reported headache and nausea
same,ECG readings,[2]; 12-lead ECG before and 2 h after first dose,No clinically significant changes in ECG readings
same,adverse events resulting in discontinuation,[2]; 30–240 mg twice in 24 h,no adverse events resulted in discontinuation
same,serious adverse events during active dosing periods,"[2]; 30–240 mg twice in 24 h, safety analysis set n = 27",No serious adverse events were reported
same,blood pressure compared with placebo,[2]; [3],slight decreases in blood pressure
same,pulse rate compared with placebo,[2]; [3],Slight increases in pulse rate
